Read-outs that look alike come from different tables or passages of the source.
What was measured:
[1] = biological target: T1, hERG K+ channel (Homo sapiens, UniProt Q12809); test: hERG inhibition, IonWorks Quattro patch clamp; assay type: cell-based
T1 construct: Chinese hamster lung cell line stably expressing the full length hERG channel; host or cells: Chinese hamster lung cell line
Protocol: Testing was performed by Essen Instruments, Hertfordshire, UK. Compounds were tested for inhibition of the human ether a go‐go related gene (hERG) K+ channel in a Chinese hamster lung cell line stably expressing the full length hERG channel. Single cell ionic currents were measured in the perforated patch clamp configuration at room temperature using an IonWorks Quattro instrument. Eight‐point concentration–response curves were generated using threefold serial dilutions from the maximum final assay concentration. IC50 values were obtained from a four‐parameter logistic fit of the % inhibition data.

[2] = Microsomal stability, rat liver microsomes; assay type: in vitro ADME; conditions: mean ± SD [n]
Protocol: Microsomal stability was determined using pooled human, rat or dog liver microsomes according to the method described in WO2011135276 (Webster et al., 2011a).

[3] = CSF study, plasma and CSF pharmacokinetics; assay type: in vivo; conditions: human; for Tmax: median (range); for Kp at 5 h / concentration at 5 h / Cmax / half-life / AUC(0-t): 35 mg; for concentration at 5 h: CSF; for AUC(0-t): read-out: AUC0–12h
Protocol: A non‐randomized, open label, multiple dose phase I study to determine the pharmacokinetic parameters of UE2343 in CSF was carried out at Linear Clinical Research Ltd, Nedlands, Australia. Four healthy male subjects each received 35 mg UE2343 b.i.d (12 hourly) fed (30 min after the start of a standard meal) for 3 days (Day 1 to Day 3) and once on the morning of Day 4 (seven doses in total). Plasma pharmacokinetic samples were taken from each subject on Day 1 and Day 4. A single CSF sample was taken from each subject at 5 h post‐final dose on Day 4, corresponding to the plasma Tmax (time to maximum plasma concentration).
(§1) Laboratory evaluation of clinical safety parameters was carried out using standard validated methods. Measurement of plasma pharmacodynamic markers [adrenocorticotropic hormone (ACTH), cortisol, 4‐androstenedione, testosterone and dehydroepiandrosterone sulphate (DHEA‐s)] was carried out using commercially available kits. Each method was fully validated prior to analysis. Urinary steroid metabolites were measured according to established methods (Boonen et al., 2013). UE2343 levels in plasma, urine and CSF was determined by LC–MS/MS using fully validated methods.
(§2) The data and statistical analysis comply with the recommendations on experimental design and analysis in pharmacology (Curtis et al., 2015). Levels of probability, P < 0.05 were deemed to constitute the threshold for statistical significance. Pharmacokinetic parameters, except Tmax (time of maximum observed drug concentration), are given as mean ± coefficient of variation (CV%). Tmax is given as median ± range. For each of the pharmacodynamic parameters [ACTH, cortisol, adrenal androgens, tetrahydrocortisols (THFs)/tetrahydrocortisone (THE) ratio], the maximum % change from baseline for each subject was subjected to ANOVA. For selected data, an additional covariate factor for the baseline was also included in the ANOVA/analysis of covariance (ANCOVA) model. Associated P‐values <0.05 for each comparison have been presented.

[4] = Single ascending dose study, pharmacokinetics; assay type: in vivo; conditions: human; for half-life / Cmax / Tmax / CL renal: both sexes; for half-life / Cmax / Tmax: plasma; for Tmax: median (range); for CL renal: urine and plasma
Protocol: A double‐blind, randomized, placebo‐controlled single ascending dose study was carried out at Simbec Research Ltd, Merthyr Tydfil, UK. Each cohort consisted of six healthy male subjects and two females of non‐child bearing potential. Two male ‘dose leader’ subjects (1 active : 1 placebo) were dosed first in each cohort. The remainder of the cohort (5 active : 1 placebo) were dosed 24 h later. Dose cohorts were 2, 5, 10, 18, 25 and 35 mg. Safety, pharmacokinetic and pharmacodynamic assessments were made at pre‐determined time‐points during each part of the study. Dose escalation was dependent upon satisfactory review of the blinded safety (up to Day 6) and pharmacokinetic (up to 24 h post‐dose) data from the preceding cohort.
as §1, §2

[5] = biological target: T2, CYP2C9 (Homo sapiens, UniProt P11712); test: Cytochrome P450 inhibition, CYP2C9; assay type: in vitro ADME; conditions: human liver microsomes; read-out: CYP450 isoform 2C9 IC50
T2 construct: tissue Cyprotex Discovery Limited; host or cells: human liver microsomes
Protocol: Testing was performed by Cyprotex Discovery Limited, Cheshire, UK. Six test compound concentrations (0.4, 1, 4, 10, 40 and 100 μM; final DMSO concentration 0.25%, final microsome concentration 0.25 mg·mL^−1) were either pre‐incubated for 30 min in the absence and presence of NADPH or underwent a 0 min pre‐incubation with human liver microsomes. At the end of the pre‐incubation period, the probe substrate for each cytochrome P450 (CYP450) isoform (30 μM) and NADPH (1 mM) were then added (final DMSO concentration 0.3%), and the samples were incubated for 5 min at 37°C. Probe substrates were as follows: 1A2 – phenacetin, 2C9 – diclofenac, 2C19 – mephenytoin, 2D6 – dextromethorphan, 3A4 – midazolam and testosterone. Samples were subjected to LC–MS/MS analysis to determine metabolite concentrations. A decrease in the formation of the metabolite compared with vehicle control was used to calculate an IC50 value (test compound concentration which produces 50% inhibition) for each experimental condition.

[6] = male, plasma, oral, 35 mg b.i.d, Day 1, mean (CV%)
[7] = male, plasma, oral, 35 mg b.i.d, Day 4, mean (CV%)
[8] = single oral dose 10 mg, mean (CV%)
[9] = single oral dose 18 mg, mean (CV%)
[10] = single oral dose 25 mg, mean (CV%)
[11] = single oral dose 35 mg, mean (CV%)

T1 sequence (Q12809 whole entry): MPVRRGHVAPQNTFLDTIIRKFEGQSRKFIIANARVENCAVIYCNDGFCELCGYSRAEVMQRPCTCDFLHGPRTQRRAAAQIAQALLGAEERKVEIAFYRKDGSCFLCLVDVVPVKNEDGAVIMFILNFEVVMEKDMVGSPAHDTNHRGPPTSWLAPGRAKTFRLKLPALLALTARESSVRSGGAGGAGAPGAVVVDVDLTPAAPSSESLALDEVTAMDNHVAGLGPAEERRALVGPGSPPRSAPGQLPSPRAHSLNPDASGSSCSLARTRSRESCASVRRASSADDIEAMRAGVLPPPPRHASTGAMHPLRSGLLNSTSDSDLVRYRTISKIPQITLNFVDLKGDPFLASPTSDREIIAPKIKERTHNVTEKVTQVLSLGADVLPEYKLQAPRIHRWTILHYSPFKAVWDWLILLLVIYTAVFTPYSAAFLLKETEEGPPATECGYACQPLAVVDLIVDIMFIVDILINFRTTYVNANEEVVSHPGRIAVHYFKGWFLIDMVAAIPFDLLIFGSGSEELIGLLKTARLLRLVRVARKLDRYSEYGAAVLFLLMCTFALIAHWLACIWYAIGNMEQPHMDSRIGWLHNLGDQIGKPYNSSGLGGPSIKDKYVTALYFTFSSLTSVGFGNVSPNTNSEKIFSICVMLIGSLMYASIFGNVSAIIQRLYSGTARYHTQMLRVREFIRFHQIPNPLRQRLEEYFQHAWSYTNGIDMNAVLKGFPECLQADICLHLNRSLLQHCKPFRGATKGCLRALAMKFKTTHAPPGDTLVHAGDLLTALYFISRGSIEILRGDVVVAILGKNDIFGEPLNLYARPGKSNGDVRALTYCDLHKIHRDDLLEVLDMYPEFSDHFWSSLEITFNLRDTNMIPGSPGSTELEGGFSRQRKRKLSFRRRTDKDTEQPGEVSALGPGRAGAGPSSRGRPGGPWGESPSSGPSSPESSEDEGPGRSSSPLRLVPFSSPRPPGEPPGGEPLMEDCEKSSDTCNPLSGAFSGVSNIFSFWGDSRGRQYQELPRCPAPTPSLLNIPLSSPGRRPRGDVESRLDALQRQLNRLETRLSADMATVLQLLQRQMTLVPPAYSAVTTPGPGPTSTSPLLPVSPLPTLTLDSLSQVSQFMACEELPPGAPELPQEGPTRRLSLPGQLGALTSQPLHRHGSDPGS
T2 sequence (P11712 whole entry, canonical isoform): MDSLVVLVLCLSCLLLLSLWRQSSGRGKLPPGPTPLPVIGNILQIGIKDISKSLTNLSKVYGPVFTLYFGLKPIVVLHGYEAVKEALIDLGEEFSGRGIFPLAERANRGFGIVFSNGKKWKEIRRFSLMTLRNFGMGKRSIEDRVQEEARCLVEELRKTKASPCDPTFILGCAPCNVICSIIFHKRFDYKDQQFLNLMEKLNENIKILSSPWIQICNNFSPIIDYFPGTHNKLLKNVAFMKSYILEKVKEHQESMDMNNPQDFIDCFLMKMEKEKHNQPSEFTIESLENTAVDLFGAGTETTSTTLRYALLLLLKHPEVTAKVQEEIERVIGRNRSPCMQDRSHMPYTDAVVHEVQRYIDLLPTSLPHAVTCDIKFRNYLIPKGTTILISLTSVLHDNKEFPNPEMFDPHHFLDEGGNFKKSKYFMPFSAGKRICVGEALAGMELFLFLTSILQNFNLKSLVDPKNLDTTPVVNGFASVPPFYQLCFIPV

Compound: O=C(c1csc(-c2cn[nH]c2)c1)N1C2CCC1CC(O)(c1ncccn1)C2 (stereo not drawn) [compound 4]
- IC50 ([1]; Chinese hamster lung cells expressing hERG, mean ± SD [n]): > 30 µM
- inhibition of the hERG channel ([1]; up to a concentration of 30 μM, in words): only marginal inhibition
- Liver microsomal stability (% parent at 30 min), rat [2]: 74 ± 1 [3] % parent at 30 min
- CCSF, 5h (concentration in CSF) ([3]; 35 mg b.i.d, Day 4, 5 h post-dose, mean (CV%), listed as UE2343): 69.8 (44%) ng·mL^−1
- Tmax ([3]; 35 mg b.i.d, Day 4): 5.1 (3–5) h
- extent of accumulation in plasma after repeated dosing ([3]; 35 mg b.i.d, Day 4 vs Day 1): 3.3 fold
- time post‐dose at which mean Cmax was reached ([3]; 35 mg b.i.d, Days 1 and 4): 5 h
- CSF concentration relative to IC50 at Cmin ([3]; 35 mg twice daily, in words): more than fivefold
- CSF concentration relative to IC50 at Cmax ([3]; 35 mg twice daily, in words, listed as UE2343): up to ninefold greater
- Kp at 5 h ([3]; male, CSF (relative to free plasma), oral, 35 mg b.i.d, Day 4, read-out: CSF levels as % of the free plasma levels, range): 0.25 to 0.4
- Kp at 5 h ([3]; male, CSF (relative to free plasma), oral, 35 mg b.i.d, at plasma Cmax on Day 4, read-out: mean CSF levels as % of the free plasma levels): 0.33
- Kp at 5 h ([3]; male, CSF (relative to total plasma), oral, 35 mg b.i.d, Day 4, read-out: CSF concentration as % of simultaneous total plasma levels, range): 0.0746 to 0.119
- Kp at 5 h ([3]; male, CSF (relative to total plasma), oral, 35 mg b.i.d, at plasma Cmax on Day 4, read-out: mean CSF levels as % of the total plasma levels): 0.1
- concentration at 5 h ([3]; male, oral, 35 mg b.i.d, Day 4, 5 h post-dose, mean (CV%), read-out: CCSF, 5h (concentration in CSF)): 0.0698 µg/mL
- concentration at 5 h ([3]; male, oral, 35 mg b.i.d, Day 4, 5 h post-dose, read-out: concentration in the CSF, range over subjects): 0.0412 to 0.0999 µg/mL
- Cmax [3, 6]: 0.235 µg/mL
- half-life [3, 6]: 6.24 h
- AUC(0-t) [3, 6]: 1.71 µg·h/mL
- Cmax [3, 7]: 0.708 µg/mL
- half-life [3, 7]: 8.97 h
- AUC(0-t) [3, 7]: 5.67 µg·h/mL
- Tmax ([3]; male, plasma, oral, 35 mg b.i.d, Day 1, read-out: Tmax): 5.1 h
- half-life ([4]; oral, single doses, range across doses): 10.5 to 18.7 h
- Cmax [4, 8]: 0.0404 µg/mL
- half-life [4, 8]: 18.7 h
- Tmax ([4]; single oral dose 10 mg): 3.5 h
- Cmax [4, 9]: 0.136 µg/mL
- half-life [4, 9]: 13.6 h
- Tmax ([4]; single oral dose 18 mg): 4 h
- Cmax [4, 10]: 0.278 µg/mL
- half-life [4, 10]: 10.5 h
- Tmax ([4]; single oral dose 25 mg): 4 h
- Cmax [4, 11]: 0.329 µg/mL
- half-life [4, 11]: 11.4 h
- Tmax ([4]; single oral dose 35 mg): 4 h
- CL renal ([4]; oral, single doses, read-out: renal clearance (CLR)): < 2.17 mL/min
- CL renal ([4]; single oral dose 10 mg, mean (CV%), read-out: CLR (renal clearance) (converted)): 1.17 mL/min
- CL renal ([4]; single oral dose 18 mg, mean (CV%), read-out: CLR (renal clearance) (converted)): 2.67 mL/min
- CL renal ([4]; single oral dose 25 mg, mean (CV%), read-out: CLR (renal clearance) (converted)): 2.17 mL/min
- CL renal ([4]; single oral dose 35 mg, mean (CV%), read-out: CLR (renal clearance) (converted)): 2 mL/min
- Urinary excretion, % of the respective doses ([4]; single doses): ≤ 1.8%
- Plasma levels ([4]; single doses of 2 and 5 mg, in words): below the level of quantification
- AUC0‐t [4, 8]: 550 (90%) ng^.h·mL^−1
- AUC0‐∞ [4, 8]: 856 (70%) ng^.h·mL^−1
- Ae(0–120h) (%) [4, 8]: 0.53 (85%)
- Ae(0–120h), amount excreted in urine [4, 8]: 52.5 (85%) μg
- Oral clearance [4, 8]: 18.5 (75%) L·h^−1
- AUC0‐t [4, 9]: 2291 (87%) ng^.h·mL^−1
- AUC0‐∞ [4, 9]: 2581 (84%) ng^.h·mL^−1
- Ae(0–120h) (%) [4, 9]: 1.67 (66%)
- Ae(0–120h), amount excreted in urine [4, 9]: 300 (66%) μg
- Oral clearance [4, 9]: 14.5 (90%) L·h^−1
- AUC0‐t [4, 10]: 3486 (39%) ng^.h·mL^−1
- AUC0‐∞ [4, 10]: 3825 (35%) ng^.h·mL^−1
- Ae(0–120h) (%) [4, 10]: 1.75 (37%)
- Ae(0–120h), amount excreted in urine [4, 10]: 438 (37%) μg
- Oral clearance [4, 10]: 7.32 (38%) L·h^−1
- AUC0‐t [4, 11]: 4016 (30%) ng^.h·mL^−1
- AUC0‐∞ [4, 11]: 4261 (29%) ng^.h·mL^−1
- Ae(0–120h) (%) [4, 11]: 1.43 (15%)
- Ae(0–120h), amount excreted in urine [4, 11]: 501 (15%) μg
- Oral clearance [4, 11]: 8.78 (28%) L·h^−1
- IC50 [5]: > 50 µM
